The subject of series [1] is HeLa cells. Kind of series: Annexin V-FITC/PI apoptosis assay. The following applies: 0.1 μM, 6, 12, 24 and 48 h.
Protocol: The HeLa cell line was used for cell apoptosis. Cells (20000 per mL) were incubated with several concentrations of the compounds or drugs for 6–48 h, and incubated in DMEM medium supplemented with 12% fetal calf serum (FCS), 2 mM L -glutamine, and 100 mg/L penicillin G and 100 mg/L streptomycin at 37 °C and 5% CO2. The cells were washed with PBS twice, centrifuged at 206 g for 5 min, and 5–10[5] cells were collected. Binding buffer suspension (500 μL) was added to the cells, and then 5 μL of the FITC-Annexin V mix was added. Next, 10 μL of the PI mix was added, and the suspension was mixed and kept at room temperature for 30 min in the dark. Analysis was with a BD accur C6 flow cytometer.
The next series deals with MCF-7. Kind of series: MTT cytotoxicity assay, MCF-7. Type of series: cell-based. The note with it: Homo sapiens, MCF7, drug exposure 48 h, mean ± SD (n = 3), read-out: Cytotoxic activity (IC50) MCF-7. How it is done:
(§1) HeLa, BGC823, A-549, MCF-7 and HT-7702 cell lines were obtained from the ATCC. […] Tumor cells (3500–13,000) were seeded into 96-well microtest plates in 100 μL of culture medium per well, incubated for 48 h in the presence or absence of test compounds (8 different concentrations ranging from 100 to 0.01 μg/mL). For quantitative estimation of cytotoxicity, the (MTT) method was used, essentially performed as described previously. Briefly, cells were washed twice with PBS, fixed for 15 min in 1% glutaraldehyde solution, rinsed twice in PBS, and stained in 0.5% MTT solution for 4 h at 37 °C. […] The initial seeding densities varied among the cell lines to ensure a final absorbance reading in control (untreated) cultures within the range of 0.6–0.8 A492 units. Drug exposure was carried out for 2 days, and the IC50 value, i.e., the drug concentration that decreased the absorbance by 50%, was extrapolated from dose-response data. Each test was performed in triplicate, and the absorbance readings between the triplicates varied by no more than 10%.

Another series deals with BGC-823. The experiment in a line: MTT cytotoxicity assay, BGC-823. The format is cell-based. The following applies: Homo sapiens, BGC-823, drug exposure 48 h, mean ± SD (n = 3), read-out: Cytotoxic activity (IC50) BGC-823. How it is done:
as §1
Background: Formazan colour is commonly taken as a measure of viable cells.

Another series deals with HeLa. The experiment in a line: MTT cytotoxicity assay, HeLa. Type of series: cell-based. The note with it: Homo sapiens, HeLa, 48 h, drug exposure 48 h, mean ± SD (n = 3), read-out: Cytotoxic activity (IC50) HeLa. How it is done:
as §1

In series [2] the test system is HeLa cells. The experiment in a line: Cell cycle analysis by flow cytometry (PI). The format is cell-based. The note with it: for Effect on HeLa cell cycle: 0.1, 1.0, 5.0 μM, 6, 12, 24, 48 h; for Ratio of cell cycle arrest (of total cells): 0.1 μM, 6, 12, 24 and 48 h. How it is done: The HeLa cell line was used for cell cycle analysis. Progression through the cell cycle was assessed by flow cytometry DNA determination with Propidium Iodide (PI). […] Flow cytometric analysis was performed using a BD accur C6 flow cytometer. Analysis was with Mod FIT software.
(Flow cytometry measures light scatter and fluorescence of single cells or particles in a stream.)

Series [3] is described as follows: MTT cytotoxicity assay, normal hepatic cell line HL-7702. Type of series: cell-based. The following applies: HL-7702 normal hepatic cells, human normal hepatic immortal cell line, drug exposure 48 h, mean ± SD (n = 3), read-out: Cytotoxic activity (IC50) HL-7702. How it is done:
as §1

The next series concerns A549. Kind of series: MTT cytotoxicity assay, A549. Type of series: cell-based. The following applies: Homo sapiens, A549, drug exposure 48 h, mean ± SD (n = 3), read-out: Cytotoxic activity (IC50) A549. How it is done:
as §1

A word on the IC50: it is the concentration needed to halve the response being measured.

Turning to `COc1ccc(N[C@@H]2c3cc4c(cc3[C@@H](c3cc(OC)c(O)c(OC)c3)[C@H]3C(=O)OC[C@@H]32)OCO4)cc1` [Compound 12′], the “Ratio of apoptotic Hela cells (of total cells)” value in the series with HeLa cells [1] is “less than 15%”. In addition, the IC50 in the series on MCF-7 stood at 18.8 ± 0.24 µM; with BGC-823 it was 36 ± 3.21 µM; with HeLa it was 24.46 ± 0.16 µM; in the series with A549 it was 22.3 ± 1.21 µM. For the same molecule, the “Effect on HeLa cell cycle” value in the series with HeLa cells [2] was “arrested at the G2/M phase”. In the series on HeLa cells [2] (HeLa), the “Ratio of cell cycle arrest (of total cells)” value is reported as “less than 10%”. The IC50 at 48 h in series [3] was 28.6 ± 2.35 µM.

In the case of `COc1ccc(N[C@@H]2c3cc4c(cc3[C@@H](c3cc(OC)c(O)c(OC)c3)[C@H]3C(=O)OC[C@@H]32)OCO4)cc1F` [Compound 19′, 4β-NH-(3-fluoro-4-methoxyaniline)-4-deoxy-4′-demethylepipodophyllotoxin], the “Ratio of apoptotic Hela cells (of total cells)” value in the series with HeLa cells [1] is “less than 15%”. Besides, the IC50 in the series with MCF-7 was 1.32 ± 0.24 µM; in the series with BGC-823 it was 0.4 ± 0.07 µM; with HeLa, 0.56 ± 0.12 µM; in the series with A549, 1.2 ± 0.25 µM. The “Effect on HeLa cell cycle” value with HeLa cells [2] was “arrested at the G2/M phase”. Further, the “Ratio of cell cycle arrest (of total cells)” value with HeLa cells [2] (HeLa) was “less than 10%”. Besides, in the series with HeLa cells [2] (HeLa, 5.0 μM, 12 h), the “Percentage of cell cycle arrest (right peak of histogram)” value is 84.9%. The IC50 at 48 h in series [3] was determined as 188 ± 7.33 µM.

On to `COc1cc([C@@H]2c3cc4c(cc3[C@@H](Nc3ccc(Cl)cc3)[C@H]3COC(=O)[C@H]23)OCO4)cc(OC)c1O` [Compound 9′], for which the IC50 was determined as 37.68 ± 0.16 µM in the series on MCF-7, 14.3 ± 1.14 µM with BGC-823, 16.7 ± 1.31 µM with HeLa and 29.8 ± 0.75 µM with A549. Also, the IC50 at 48 h in series [3] stood at 15.8 ± 1.17 µM.

As to `COc1ccc(Cl)cc1N[C@@H]1c2cc3c(cc2[C@@H](c2cc(OC)c(O)c(OC)c2)[C@H]2C(=O)OC[C@@H]21)OCO3` [Compound 15′], the IC50 is 2.16 ± 0.37 µM with MCF-7, 27.1 ± 1.17 µM in the series on BGC-823, 5.89 ± 0.48 µM in the series with HeLa and 29.7 ± 1.67 µM in the series with A549. Also, in series [3], the IC50 at 48 h is 67.6 ± 4.32 µM.

Consider `COc1cc([C@@H]2c3cc4c(cc3[C@@H](Nc3ccc(Cl)cc3)[C@H]3COC(=O)[C@H]23)OCO4)cc(OC)c1OC` [Compound 9], for which the IC50 in the series with MCF-7 amounted to 19.3 ± 1.43 µM; in the series with BGC-823, 23.1 ± 1.74 µM; with HeLa, 21.32 ± 0.11 µM; in the series on A549 it was 22.8 ± 1.08 µM. Also, the IC50 at 48 h in series [3] turned out to be 41.6 ± 3.11 µM.

As for `COc1cc([C@@H]2c3cc4c(cc3[C@@H](Nc3cccc(Br)c3)[C@H]3COC(=O)[C@H]23)OCO4)cc(OC)c1OC` [Compound 5], the IC50 with MCF-7 was 8.35 ± 0.42 µM; with BGC-823, 11.2 ± 3.61 µM; with HeLa, 9.01 ± 0.11 µM; with A549 it was 13.4 ± 2.54 µM. Further, the IC50 at 48 h in series [3] was found to be 13.58 ± 0.11 µM.

Regarding `COc1cc([C@@H]2c3cc4c(cc3[C@@H](Nc3cccc(Br)c3)[C@H]3COC(=O)[C@H]23)OCO4)cc(OC)c1O` [Compound 5′], the IC50 with MCF-7 amounted to 10.7 ± 1.48 µM; with BGC-823, 13.6 ± 0.16 µM; in the series with HeLa, 8.83 ± 0.12 µM; in the series on A549 it was 11.8 ± 0.74 µM. Further, in series [3], the IC50 at 48 h was found to be 44.3 ± 1.78 µM.
